In patent US6512000B1, “Aminocarbonyl-substituted benzimidazoles having tryptase-inhibitory activity” (Boehringer Ingelheim Pharma KG, priority 1999, dated 2003):
pIC50: −log10 of the molar value. Where a name gives a salt, the structure may show the parent alone.

Biological target: T1, rh beta tryptase (Homo sapiens, UniProt P20231)
T1 construct: purchased Promega
Assay: Tryptase inhibition test (cleavage of N-p-tosyl-Gly-Pro-Lys-para-nitroaniline, p-nitroaniline measured at 405 nm)
Type: biochemical
Conditions: pH 7.4, 37° C.; for pIC50: concentration at which 50% of the tryptase enzyme activity is inhibited, substrate 0.6 mM; for inhibition at 10 µM: inhibition of rh beta tryptase at 10 μM test substance, substrate N-p-tosyl-Gly-Pro-Lys-para-nitroaniline 0.6 mM, 5 minutes
Protocol: The compounds according to the invention are characterised by their tryptase-inhibiting activity. This ability to inhibit tryptase was investigated using the test described below.
The measurement is carried out in Tris HCl buffer (100 mM), which additionally contains calcium (5 mM) and heparin ([…]), at pH 7.4. The standard used is rh beta tryptase which may be obtained commercially from Promega, for example. The substrate used is N-p-tosyl-Gly-Pro-Lys-para-nitroaniline in a concentration of 0.6 mM. The substrate is digested with tryptase to form p-nitroaniline which can be measured at 405 nm. Usually, an incubation period of 5 minutes and an incubation temperature of 37° C. are chosen. The enzyme activity used is 0.91 U/ml. The measurements are carried out in an Autoanalyser (Cobas Bio) made by Hofmann LaRoche. The potential inhibitory substances are used in concentrations of 10 μM in the screening, the inhibition of the tryptase being given in percent. The IC50 is determined at over 70% inhibition (concentration at which 50% of the enzyme activity is inhibited). After 5 minutes' pre-incubation of the potential inhibitory substances, the substrate is added to start the reaction, the formation of p-nitroaniline being taken as a measurement of the enzyme activity after 5 minutes, after testing the linearity.
The data obtained after the above test has been carried out (% inhibition) are assembled in Table 25 for the compounds according to the invention. The IC50 values obtained for the compounds according to the invention can be found in Table 26.
Table 26 contains the IC50 binding values obtained for the compounds according to the invention. These were measured as described above.

T1 sequence (P20231 31-275): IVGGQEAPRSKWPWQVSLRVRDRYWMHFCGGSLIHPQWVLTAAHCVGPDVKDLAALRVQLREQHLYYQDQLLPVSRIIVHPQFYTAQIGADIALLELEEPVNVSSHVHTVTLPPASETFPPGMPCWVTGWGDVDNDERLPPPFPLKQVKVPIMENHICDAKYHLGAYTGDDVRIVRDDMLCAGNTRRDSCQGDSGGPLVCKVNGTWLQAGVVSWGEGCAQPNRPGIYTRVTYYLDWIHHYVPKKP

Row | SMILES | pIC50 | inhibition at 10 µM
1 | Cn1c(CCc2ccc(C(=N)N)cc2)nc2cc(C(=O)N(CCN)C3CCCCC3)ccc21 [Example 37, 2-[2-(4-Amidinophenyl)-ethyl]-1-methyl-benzimidazol-5-yl-carboxylic Acid-[N-(2-amino-ethyl)-N-cyclohexyl-amide]-dihydrochloride] | 7.17 | 
2 | Cn1c(CCc2ccc(C(=N)N)cc2)nc2cc(C(=O)NCCNc3ccccc3)ccc21 [Example 38, 2-[2-(4-Amidinophenyl)-ethyl]-1-methyl-benzimidazol-5-yl-carboxylic Acid-N-(2-phenylamino-ethyl)-amide-dihydrochloride] | 6.95 | 
3 | Cn1c(CCc2ccc(CN)cc2)nc2cc(C(=O)NCCC(c3ccccc3)c3ccccc3)ccc21 [Example 40, 2-[2-(4-Aminomethyl-phenyl)-ethyl]-1-methyl-benzimidazol-5-yl-carboxylic Acid-N-(3,3-diphenylpropyl)-amide-dihydrochloride] | 6.72 | 
4 | Cc1ccccc1N1CCCN(C(=O)c2ccc3c(c2)nc(CCc2ccc(CN)cc2)n3C)CC1 [Example 41, 2-[2-(4-Aminomethyl-phenyl)-ethyl]-1-methyl-benzimidazol-5-yl-carboxylic Acid-[N′-(2-methyl-phenyl)-diazepide]-hydrochloride] | 6.76 | 
5 | Cn1c(CCc2ccc(CN)cc2)nc2cc(C(=O)N(CCCc3ccccc3)Cc3ccc(CN)cc3)ccc21 [Example 42, 2-[2-(4-aminomethyl-phenyl)-ethyl]-1-methyl-benzimidazol-5-yl-carboxylic Acid-N-(4-aminomethyl-benzyl)-N-(3-phenylpropyl)-amide-dihydrochloride] | 6.08 | 
6 | Cn1c(CCc2ccc(CN)cc2)nc2cc(C(=O)N(CCC(c3ccccc3)c3ccccc3)Cc3ccc(CN)cc3)ccc21 [Example 43, 2-[2-(4-Aminomethyl-phenyl)-ethyl]-1-methyl-benzimidazol-5-yl-carboxylic Acid-N-(4-aminomethylbenzyl)-N-(3,3-diphenylpropyl)-amide-dihydrochloride] | 6.50 | 
7 | Cc1cccc(N2CCN(C(=O)c3ccc4c(c3)nc(CCc3ccc(C(=N)N)cc3)n4C)CC2)c1 [Example 47, 2-[2-(4-Amidinophenyl)-ethyl]-1-methyl-benzimidazol-5-yl-carboxylic Acid-[N′-(3-methylphenyl)-piperazide]] | 6.93 | 
8 | CCOc1cccc(N2CCN(C(=O)c3ccc4c(c3)nc(CCc3ccc(C(=N)N)cc3)n4C)CC2)c1 [Example 48, 2-[2-(4-Amidinophenyl)-ethyl]-1-methyl-benzimidazol-5-yl-carboxylic Acid-[N′-(3-ethoxyphenyl)-piperazide]] | 6.83 | 
9 | CC(C)Oc1cccc(N2CCN(C(=O)c3ccc4c(c3)nc(CCc3ccc(C(=N)N)cc3)n4C)CC2)c1 [Example 49, 2-[2-(4-Amidinophenyl)-ethyl]-1-methyl-benzimidazol-5-yl-carboxylic Acid-[N ′-(3-isopropyloxyphenyl)-piperazide]] | 6.82 | 
10 | Cn1c(CCc2ccc(C(=N)N)cc2)nc2cc(C(=O)N3CCN(C4CCCC4)CC3)ccc21 [Example 50, 2-[2-(4-Amidinophenyl)-ethyl]-1-methyl-benzimidazol-5-yl-carboxylic Acid-[N′-(cyclopentyl)-piperazide]] | 6.75 | 
11 | Cc1ccccc1N1CCN(C(=O)c2ccc3c(c2)nc(CCc2ccc(C(=N)N)cc2)n3C)CC1 [Example 51, 2-[2-(4-Amidinophenyl)-ethyl]-1-methyl-benzimidazol-5-yl-carboxylic Acid-[N′-(2-methylphenyl)-piperazide]] | 6.64 | 
12 | Cn1c(CCc2ccc(C(=N)N)cc2)nc2cc(C(=O)N3CCN(c4ccccn4)CC3)ccc21 [Example 52, 2-[2-(4-Amidinophenyl)-ethyl]-1-methyl-benzimidazol-5-yl-carboxylic Acid-[N′-(2-pyridyl)-piperazide]] | 6.64 | 
13 | COc1ccccc1N1CCN(C(=O)c2ccc3c(c2)nc(CCc2ccc(C(=N)N)cc2)n3C)CC1 [Example 53, 2-[2-(4-Amidinophenyl)-ethyl]-1-methyl-benzimidazol-5-yl-carboxylic Acid-[N′-(2-methoxyphenyl)-piperazide]] | 6.62 | 
14 | CCOc1ccccc1N1CCN(C(=O)c2ccc3c(c2)nc(CCc2ccc(C(=N)N)cc2)n3C)CC1 [Example 54, 2-[2-(4-Amidinophenyl)-ethyl]-1-methyl-benzimidazol-5-yl-carboxylic Acid-[N′-(2-ethoxyphenyl)-piperazide]] | 6.52 | 
15 | Cn1c(CCc2ccc(C(=N)N)cc2)nc2cc(C(=O)N3CCN(Cc4ccccc4)CC3)ccc21 [Example 55, 2-[2-(4-Amidinophenyl)-ethyl]-1-methyl-benzimidazol-5-yl-carboxylic Acid-[N′-benzyl-piperazide]] | 6.46 | 
16 | CCOCCCn1c(CCc2ccc(C(=N)N)cc2)nc2cc(C(=O)N(Cc3ccc(CN)cc3)Cc3cccc(OC)c3)ccc21 [Example 70, 2-[2-(4-amidinophenyl)ethyl]-1-(3-ethoxy-propyl)-benzimidazol-5-yl-carboxylic acid-N-[4-(amino-methyl)-benzyl]-N-(3-methoxybenzyl)-amide] | 6.37 | 63%
17 | CCCCN(CCCC)CCCn1c(CCc2ccc(C(=N)N)cc2)nc2cc(C(=O)N(Cc3ccc(CN)cc3)Cc3cccc(OC)c3)ccc21 [Example 71, 2-[2-(4-amidinophenyl)ethyl]-1-(3-di-n-butylaminopropyl)-benzimidazol-5-yl-carboxylic acid-N-[4-(amino-methyl)-benzyl]-N-(3-methoxybenzyl)-amide] |  | 58%
18 | COc1cccc(CN(Cc2ccc(CN)cc2)C(=O)c2ccc3c(c2)nc(CCc2ccc(C(=N)N)cc2)n3CCCNC(=O)Cc2ccccc2)c1 [Example 72, 2-[2-(4-amidinophenyl)ethyl]-1-[3-(benzylcarbonylamino)-propyl]-benzimidazol-5-yl-carboxylic acid-N-[4-(amino-methyl)-benzyl]-N-(3-methoxybenzyl)-amide] |  | 69%
19 | COc1cccc(CN(Cc2ccc(CN)cc2)C(=O)c2ccc3c(c2)nc(CCc2ccc(C(=N)N)cc2)n3CC2CC2)c1 [Example 74, 2-[2-(4-amidinophenyl)ethyl]-1-cyclopropylmethyl-benzimidazol-5-yl-carboxylic acid-N-[4-(amino-methyl)-benzyl]-N-(3-methoxybenzyl)-amide] |  | 66%
20 | COc1cccc(CN(Cc2ccc(CN)cc2)C(=O)c2ccc3c(c2)nc(CCc2ccc(C(=N)N)cc2)n3CCc2ccccc2)c1 [Example 75, 2-[2-(4-amidinophenyl)ethyl]-1-(2-phenyl-ethyl)-benzimidazol-5-yl-carboxylic acid-N-[4-(amino-methyl)-benzyl]-N-(3-methoxybenzyl)-amide] |  | 60%
21 | COc1cccc(CN(Cc2ccc(CN)cc2)C(=O)c2ccc3c(c2)nc(CCc2ccc(C(=N)N)cc2)n3CCc2ccc(Cl)cc2)c1 [Example 76, 2-[2-(4-amidinophenyl)ethyl]-1-[2-(4-chlorophenyl)ethyl]-benzimidazol-5-yl-carboxylic acid-N-[4-(amino-methyl)-benzyl]-N-(3-methoxybenzyl)-amide] |  | 58%
22 | COc1cccc(CN(Cc2ccc(CN)cc2)C(=O)c2ccc3c(c2)nc(CCc2ccc(C(=N)N)cc2)n3CCCN2CCN(c3ccccc3C)CC2)c1 [Example 80, 2-[2-(4-amidinophenyl)ethyl]-1-{3-[4-(2-methylphenyl)-piperazin-1-yl]-propyl}-benzimidazol-5-yl-carboxylic acid-N-[4-(amino-methyl)-benzyl]-N-(3-methoxybenzyl)-amide] |  | 53%
23 | COc1cccc(CN(Cc2ccc(CN)cc2)C(=O)c2ccc3c(c2)nc(CCc2ccc(C(=N)N)cc2)n3CCCN2CCOCC2)c1 [Example 81, 2-[2-(4-amidinophenyl)ethyl]-1-[3-(morpholin-4-yl)-propyl]-benzimidazol-5-yl-carboxylic acid-N-[4-(amino-methyl)-benzyl]-N-(3-methoxybenzyl)-amide] |  | 69%
24 | COc1cccc(CN(Cc2ccc(CN)cc2)C(=O)c2ccc3c(c2)nc(CCc2ccc(C(=N)N)cc2)n3CC2CCCO2)c1 (stereo not shown) [Example 82, 2-[2-(4-amidinophenyl)ethyl]-1-(tetrahydrofuran-2-yl-methyl)-benzimidazol-5-yl-carboxylic acid-N-[4-(amino-methyl)-benzyl]-N-(3-methoxybenzyl)-amide] |  | 61%
25 | CCCCN(Cc1ccc(CN)cc1)C(=O)c1ccc2c(c1)nc(CCc1ccc(C(=N)N)cc1)n2CCCOCC [Example 86, 2-[2-(4-amidinophenyl)ethyl]-1-(3-ethoxypropyl)-benzimidazol-5-yl-carboxylic acid-N-[4-(amino-methyl)-benzyl]-N-n-butyl-amide] | 6.87 | 72%
26 | CCCCN(CCCC)CCCn1c(CCc2ccc(C(=N)N)cc2)nc2cc(C(=O)N(CCCC)Cc3ccc(CN)cc3)ccc21 [Example 87, 2-[2-(4-amidinophenyl)ethyl]-1-(3-di-n-butylaminopropyl)-benzimidazol-5-yl-carboxylic acid-N-[4-(amino-methyl)-benzyl]-N-n-butyl-amide] |  | 59%
